Source: patent US20140066498A1, “TRITERPENOID DERIVATIVES, BENZENOID DERIVATIVES, AND PHARMACEUTICAL COMPOSITIONS CONTAINING THE SAME” (National Cheng Kung University, priority 2010, published 2014)
In brackets after ≈: the same amount, converted by molar mass. Like-named read-outs stand apart in the source and are kept apart here.

How the values were obtained:
[1] = system: KB-VIN (multidrug-resistant strain); assay: Cytotoxicity assay against KB-VIN cells in vitro; format: cell-based, human
NADPH oxidase (NOX) = NADPH oxidase (NOX) (Homo sapiens, UniProt P04839); format: cell-based; conditions: ROS production triggered with fMLP (2 μM), 1-50 μM test drug, peripheral human neutrophils; mean ± S.E.M.; read-out: IC50 (μM) in NOX fMLP-induced NOX activation in PMN
KB (human cancer cell) = assay: Cytotoxicity assay against KB cells in vitro; format: cell-based; conditions: NA@20 given for inactive
[2] = molecular target: T1, nitric oxide synthase (NOS) (Mus musculus, UniProt P29477); assay: NOS activity: LPS-induced NO production in murine microglial cells (BV2)
T1 sequence (P29477 1-1144): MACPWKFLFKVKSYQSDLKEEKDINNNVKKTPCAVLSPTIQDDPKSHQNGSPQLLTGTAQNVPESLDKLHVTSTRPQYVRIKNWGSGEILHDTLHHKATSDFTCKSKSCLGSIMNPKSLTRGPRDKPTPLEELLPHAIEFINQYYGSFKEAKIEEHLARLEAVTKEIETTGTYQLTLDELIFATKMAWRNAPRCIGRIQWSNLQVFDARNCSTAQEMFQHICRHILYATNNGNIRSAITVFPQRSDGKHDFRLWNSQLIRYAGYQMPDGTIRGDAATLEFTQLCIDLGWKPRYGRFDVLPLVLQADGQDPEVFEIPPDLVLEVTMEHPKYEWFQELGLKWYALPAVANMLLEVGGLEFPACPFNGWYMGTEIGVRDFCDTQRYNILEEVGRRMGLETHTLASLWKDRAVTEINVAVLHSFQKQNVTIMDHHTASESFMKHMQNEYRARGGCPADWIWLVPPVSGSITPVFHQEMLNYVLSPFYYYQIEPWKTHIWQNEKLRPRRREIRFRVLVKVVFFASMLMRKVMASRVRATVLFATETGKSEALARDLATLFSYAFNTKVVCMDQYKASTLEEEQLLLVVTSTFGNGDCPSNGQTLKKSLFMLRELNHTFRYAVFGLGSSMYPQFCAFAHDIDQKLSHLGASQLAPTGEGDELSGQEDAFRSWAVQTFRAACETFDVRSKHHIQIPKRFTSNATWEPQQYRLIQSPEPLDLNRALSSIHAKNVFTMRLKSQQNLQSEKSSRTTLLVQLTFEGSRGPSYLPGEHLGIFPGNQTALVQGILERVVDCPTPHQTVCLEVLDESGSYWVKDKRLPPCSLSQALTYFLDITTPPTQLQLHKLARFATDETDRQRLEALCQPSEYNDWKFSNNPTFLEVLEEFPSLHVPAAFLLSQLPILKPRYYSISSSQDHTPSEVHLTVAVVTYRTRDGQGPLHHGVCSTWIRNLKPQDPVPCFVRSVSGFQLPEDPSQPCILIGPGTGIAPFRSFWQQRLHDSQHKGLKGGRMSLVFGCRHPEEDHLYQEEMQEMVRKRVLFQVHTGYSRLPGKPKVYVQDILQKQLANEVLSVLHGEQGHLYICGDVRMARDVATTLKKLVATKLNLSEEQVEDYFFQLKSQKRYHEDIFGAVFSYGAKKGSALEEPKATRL
Procedure: Microglial cell culture and measurements of mitric oxide (NO). The murine microglial cell line (BV2) was cultured, and the production of NO was measured by the methods as previously described (Wang, Y. H.; Wang, W. Y.; Chang, C. C.; Liou, K. T.; Sung, Y. J.; Liao, J. F.; Chen, C. F.; Chang, S.; Hou, Y. C.; Chou, Y. C.; Shen, Y. C. J. Biomed. Sci. 2006, 13, 127-141).

[3] = system: Daoy (human medulloblastoma); assay: MTT cytotoxicity assay, Daoy; format: cell-based; conditions: Daoy cell line
Procedure: (§1) Compounds II-7-II-9, II-13, II-14, II-20, II-21, II-25-II-33, and II-36 were assayed for cytotoxic activity against Doay (human medulloblastoma), Hep2 (human laryngeal carcinoma), MCF-7 (human breast adenocarcinoma), and Hela (human cervical epitheloid carcinoma) cell lines, using a MTT assay method.

[4] = system: MCF-7 (human breast adenocarcinoma); assay: MTT cytotoxicity assay, MCF-7; format: cell-based; conditions: MCF-7 cell line
Procedure: as §1

[5] = system: Hela (human cervical epitheloid carcinoma); assay: MTT cytotoxicity assay, Hela; format: cell-based; conditions: Hela cell line
Procedure: as §1

[6] = system: Hep2 (human laryngeal carcinoma); assay: MTT cytotoxicity assay, Hep2; format: cell-based; conditions: Hep2 cell line
Procedure: as §1

[7] = read-out: IC50 (μM) in NOS, LPS-induced NO production in BV2 cells, 1-50 μM test drug, mean ± S.E.M.

C=C(CC[C@@H](C)[C@H]1CC[C@H]2C3=C(C(=O)C[C@]12C)[C@@]1(C)CC[C@@H](O)[C@](C)(O)[C@@H]1C[C@@H]3O)C(C)C(=O)O (stereo partly shown) [Compound I-17, antcin K]
EC50 (μM) KB-VIN [1]: NA@20
IC50 (NADPH oxidase (NOX)): 47.2 ± 8.4 µM
EC50 (μM) KB (KB (human cancer cell)): NA@20

C=C(CC[C@@H](C)[C@H]1CC[C@H]2C3=C(C(=O)C[C@]12C)[C@@]1(C)CCC(=O)[C@@H](C)[C@@H]1C[C@@H]3O)[C@H](C)C(=O)O [Compound I-16, antcin C]
IC50 [2, 7]: 4.2 µM
EC50 (μM) KB-VIN [1]: NA@20
IC50 (NADPH oxidase (NOX)): 22.6 ± 3.3 µM
EC50 (μM) KB (KB (human cancer cell)): NA@20

C=C(CC[C@@H](C)[C@H]1CC[C@@]2(O)C3=C(C(=O)C[C@]12C)[C@@]1(C)CCC(=O)[C@@H](C)C1C[C@@H]3O)C(C)C(=O)O (stereo partly drawn) [Compound I-4, 7β,14α-dihydroxy-3,11-dioxo-4α-methylergosta-8,24(28)-dien-26-oic acid]
EC50 ([1]; Homo sapiens, KBVIN): 1.4 µM
melting point: 175 to 177 °C
EC50 (KB (human cancer cell); Homo sapiens): 1 µM

COc1c(C)c(-c2c(C)c(OC)c3c(c2OC)OCO3)c(OC)c2c1OCO2 [II-7, 2,2′,5,5′-tetra-methoxy-3,4,3′,4′-bi-methylenedioxy-6,6′-dimethylbiphenyl]
IC50 [2, 7]: 16.2 ± 1.4 µM

eburicol [Compound I-19]
EC50 [1]: > 20 µM
EC50 (KB (human cancer cell)): > 20 µM

CC(C)[C@@H](C)/C=C/[C@@H](C)[C@H]1CC[C@H]2C3=CC[C@H]4C[C@@H](O)CC[C@]4(C)C3=CC[C@]12C [Compound I-20, ergosterol D]
IC50 [2, 7]: 30.6 ± 0.8 µM
IC50 (NADPH oxidase (NOX)): 27.9 ± 5.6 µM

C=C(CC[C@@H](C)C1CCC2C3=C(C(=O)C[C@@]21C)[C@@]1(C)CCC(O)[C@@H](C)C1CC3=O)C(C)C(=O)OC (stereo in doubt) [Compound I-5, methyl-3α-hydroxy-7,11-dioxo-4α-methylergosta-8,24(28)-dien-26-oate]
ED50 (μg/mL) Daoy [3]: 5.2 µg/mL (≈ 10.7 µM)
ED50 (μg/mL) MCF-7 [4]: 6.6 µg/mL (≈ 13.6 µM)
EC50 ([1]; Homo sapiens, KBVIN): 2.7 µM
ED50 (μg/mL) Hela [5]: 9.0 µg/mL (≈ 18.6 µM)
EC50 (KB (human cancer cell); Homo sapiens): 0.45 µM
ED50 (μg/mL) Hep2 [6]: 7.0 µg/mL (≈ 14.4 µM)

C[C@H](C=C[C@H](C)[C@H](C)CO)[C@H]1CC[C@H]2C3=CCC4CC(=O)CC[C@]4(C)[C@H]3CC[C@]12C (stereo partly drawn) [Compound I-9, (25S)-26-hydroxy-ergosta-7,22-dien-3-one]
IC50 [2]: 12.7 ± 2.2 µM
EC50 (μM) KB-VIN [1]: NA@20
melting point: 192 to 193 °C
EC50 (μM) KB (KB (human cancer cell)): NA@20

C=C(CC[C@@H](C)C1CCC2C3=C(C(=O)C[C@@]21C)[C@@]1(C)CCC(=O)[C@@H](C)C1CC3O)C(C)C(=O)OC (stereo in doubt) [Compound I-6, methyl-7β-hydroxy-3,11-dioxo-4α-methylergosta-8,24(28)-dien-26-oate]
ED50 (μg/mL) Daoy [3]: 4.4 µg/mL (≈ 9.08 µM)
ED50 (μg/mL) MCF-7 [4]: 7.9 µg/mL (≈ 16.3 µM)
IC50 [2]: 2.5 µM
EC50 ([1]; Homo sapiens, KBVIN): 2.9 µM
ED50 (μg/mL) Hela [5]: 8.9 µg/mL (≈ 18.4 µM)
melting point: 100 to 101 °C
EC50 (KB (human cancer cell); Homo sapiens): 2 µM
ED50 (μg/mL) Hep2 [6]: 3.0 µg/mL (≈ 6.19 µM)

C=C(CC[C@@H](C)C1CCC2C3=C(C(=O)C[C@@]21C)[C@@]1(C)CCC(=O)[C@@H](C)C1CC3O)C(C)C(=O)O (stereo in doubt) [Compound I-7, 7α-hydroxy-3,11-dioxo-4α-methylergosta-8,24(28)-dien-26-oic acid]
EC50 ([1]; Homo sapiens, KBVIN): 17.5 µM
EC50 (KB (human cancer cell); Homo sapiens): 15 µM

CC(C)[C@@H](C)/C=C/[C@@H](C)[C@H]1CC[C@@H]2[C@]1(C)CC[C@H]1[C@]23C=C[C@]2(C[C@@H](O)CC[C@]12C)OO3 [Compound I-22, ergosterol peroxide]
IC50 [2, 7]: 6.3 ± 1.8 µM

C=C(CC[C@@H](C)[C@H]1CC[C@H]2C3=C(C(=O)C[C@]12C)[C@@]1(C)CCC(=O)[C@@H](C)C1CC3)C(C)C (stereo partly drawn) [Compound I-8, 4α-methylergosta-8,24(28)-dien-3,11-dione]
EC50 (μM) KB-VIN [1]: NA@20
EC50 (μM) KB (KB (human cancer cell)): NA@20

COc1cc(C)c(OC)c2c1OCO2 [II-8, 4,7-dimethoxy-5-methyl-1,3-benzodioxole]
IC50 [2, 7]: 29.1 ± 4.4 µM

C=C(CC[C@@H](C)[C@H]1CC[C@H]2C3=C(C(=O)C[C@]12C)[C@@]1(C)CCC(=O)[C@@H](C)C1CC3)C(C)C(=O)OC (stereo partly drawn) [Compound I-21, methyl 4α-methylergost-8,24(28)-dien-3,11-dion-26-oate]
IC50 [2]: 1.5 µM

C=C(CC[C@@H](C)C1CCC2C3=C(C(=O)C[C@@]21C)[C@@]1(C)CCC(O)[C@@H](C)C1CC3O)C(C)C(=O)O (stereo in doubt) [Compound I-2, 3α,7β-dihydroxy-11-oxo-4α-methylergosta-8,24(28)-dien-26-oic acid]
IC50 [2]: 15.7 ± 0.9 µM
EC50 (μM) KB-VIN [1]: NA@20

C=C(CC[C@@H](C)C1CCC2C3=C(C(=O)[C@H](O)[C@@]21C)[C@@]1(C)CC[C@@H](O)[C@@H](C)C1C[C@H]3O)C(C)C(=O)O (stereo partly drawn) [Compound I-1, 3α,7β,11α-trihydroxy-11-oxo-4α-methylergosta-8,24(28)-dien-26-oic acid]
EC50 (μM) KB-VIN [1]: NA@20
melting point: 117 to 119 °C
EC50 (μM) KB (KB (human cancer cell)): NA@20

C=C(C)C#Cc1c(C)c(OC)c(OC)c2c1OCO2 [II-2]
IC50 [2, 7]: 12.1 µM

C=C(CC[C@@H](C)[C@H]1CC[C@H]2C3=C(C(=O)C[C@]12C)[C@@]1(C)CCC(=O)[C@@H](C)[C@@H]1CC3=O)C(C)C(=O)OC (stereo partly shown) [Compound I-14, zhankuic acid A methyl ester]
IC50 [2, 7]: 0.6 µM
EC50 [1]: > 20 µM
IC50 (NADPH oxidase (NOX)): 8.4 ± 2.1 µM
EC50 (KB (human cancer cell)): > 20 µM

C=C(CC[C@@H](C)[C@H]1CC[C@H]2C3=C(C(=O)C[C@]12C)[C@@]1(C)CC[C@@H](O)[C@@H](C)[C@@H]1CC3=O)C(C)C(=O)O (stereo partly shown) [Compound I-12, zhankuic acid B]
IC50 [2, 7]: 9.6 ± 0.7 µM
EC50 [1]: 8.5 µM
EC50 (KB (human cancer cell)): 7.3 µM

C=C(CC[C@@H](C)C1CCC2C3=C(C(=O)C[C@@]21C)[C@@]1(C)CC[C@@H](O)[C@](C)(O)C1CC3=O)C(C)C(=O)O (stereo partly drawn) [Compound I-3, 3α,4β-dihydroxy-7,11-dioxo-4α-methylergosta-8,24(28)-dien-26-oic acid]
EC50 ([1]; Homo sapiens, KBVIN): 2.3 µM
melting point: 186 to 188 °C
EC50 (KB (human cancer cell); Homo sapiens): 0.3 µM

C=C(CC[C@@H](C)[C@H]1CC[C@H]2C3=C(C(=O)C[C@]12C)[C@@]1(C)CCC(=O)[C@@H](C)[C@@H]1CC3=O)C(C)C(=O)O (stereo partly shown) [Compound I-11, zhankuic acid A]
ED50 (μg/mL) Daoy [3]: — (ED50 > 20 μg/mL)
ED50 (μg/mL) MCF-7 [4]: — (ED50 > 20 μg/mL)
IC50 [2, 7]: 3.6 µM
EC50 [1]: 6.2 µM
IC50 (NADPH oxidase (NOX)): 22.1 ± 6.7 µM
ED50 (μg/mL) Hela [5]: — (ED50 > 20 μg/mL)
EC50 (KB (human cancer cell)): 3 µM
ED50 (μg/mL) Hep2 [6]: 16.6 µg/mL (≈ 35.4 µM)
